Read-outs that look alike come from different tables or passages of the source.
Experiment: Plasma pharmacokinetics and brain uptake of antrafenine in mice (LC-MS)
Type: in vivo, male C57BL/6 mice
Details: male, C57BL/6, mouse; for AUC(0-inf): read-out: Plasma AUC0-inf; for clearance: read-out: Plasma CL; for Vd: read-out: Plasma VSS
Procedure: Plasma pharmacokinetics and brain uptake of antrafenine was analyzed in male C57BL/6 mice. Antrafenine was administered intravenously at 1 mg/kg and 3 mg/kg into the tail vein and plasma was collected over a 24‐hour sampling period (n = 3 mice/time point). Following administration, the brain was harvested at 4 times over 24 hours and snap frozen in dry ice and subsequently stored frozen (−80°C) until analysis. The concentration of antrafenine was determined using liquid chromatography–mass spectrometry. The in vivo study was conducted using established procedures in accordance with the Australian Code of Practice for the Care and Use of Animals for Scientific Purposes, and the study protocols were reviewed and approved by the Monash Institute of Pharmaceutical Sciences Animal Ethics Committee. See Supporting Information for detailed methods and results. […]
Plasma pharmacokinetics and brain uptake of antrafenine was analyzed in male C57BL/6 mice by the Monash University Centre for Drug Candidate Optimisation. Antrafenine was administered intravenously at 1 mg/kg and 3 mg/kg into the tail vein and plasma was collected over a 24 h sampling period (n=3 mice/time point). Following administration, brain was harvested at four times over 24 hours and snap frozen in dry ice and subsequently stored frozen (-80°C) until analysis. The concentration of antrafenine was determined using liquid chromatography–mass spectrometry (LC-MS).
4 hrs post IV administration of 3 mg/kg Antrafenine was taken as a representative time to compare plasma and brain concentrations. At 4 hrs we determined a mean plasma concentration of 47.5 nM (+5.9 nM SD) and a mean brain concentration of 13.9 nM (+3 nM SD). […]
Plasma pharmacokinetics and brain uptake of antrafenine
The systemic exposure of antrafenine was studied in non-fasted male C57BL/6 mice weighing 19.8 – 24.6 g. Mice had access to food and water ad libitum throughout the pre- and post-dose period. Antrafenine hydrochloride Mw 588.554 (Lot#10-KSS-51-2) was obtained from Toronto Research Chemicals/LGC Standards, Canada, and was dissolved in vehicle; 5% (v/v) DMSO, 25% (v/v) 40% (w/v) Trappsol in 0.9% (w/v) saline, 70% (v/v) 40 mM citrate buffered saline at pH 3.5 at concentrations of 0.5 mg/mL and 1.5 mg/mL.
On the day of dosing, each formulation was prepared by dissolving solid antrafenine in DMSO using vortexing and sonication prior to addition of 40% (w/v) Trappsol in 0.9% (w/v) saline followed by 40 mM citrate-buffered saline at pH 3.5. Each sample was vortexed to create a colorless / light yellow solution and was filtered through a 0.22 µm syringe filter prior to dosing.
Administration of antrafenine was performed by a single bolus IV injection into the tail vein of C57BL/6 male mice using a 1ml syringe with a 25G x 1” needle at a volume of 2 mL/kg. Each […]
formulation was dosed to mice by bolus injection into the lateral tail vein (2 mL/kg) and blood samples were collected at 1, 2, 5, 15 and 30 min; 1, 2, 4, 7.5 and 24 h post-dose (n=3 mice per time point for each formulation). A maximum of three blood samples were obtained from each mouse, with plasma samples being taken via submandibular bleed (approximately 120 μL).
Blood was collected into polypropylene Eppendorf tubes containing heparin as anticoagulant and stabilization cocktail (Complete® (containing a protease inhibitor cocktail and EDTA) and potassium fluoride) to minimize the potential for ex vivo compound degradation in blood/plasma samples. Once collected, blood samples were centrifuged immediately, supernatant plasma was removed, snap frozen in dry ice and stored at -80°C until analysis by LC-MS. In addition, at the 15 min, 1, 4 and 24 h post-dose time points, the whole brain was rapidly removed from the carcass soon after the blood collection. The whole brains were blotted to remove excess blood, placed into pre-weighed polypropylene vials and weighed. The brains were snap frozen in dry […]

[1] = plasma, iv, 1 mg/kg, IV 1 mg/kg, individual mice, read-out: Plasma Concentration Individual
[2] = plasma, iv, 1 mg/kg, IV 1 mg/kg, n = 3, read-out: Plasma Concentration Mean ± SD
[3] = plasma, iv, 3 mg/kg, IV 3 mg/kg, individual mice, read-out: Plasma Concentration Individual
[4] = plasma, iv, 3 mg/kg, IV 3 mg/kg, n = 3, read-out: Plasma Concentration Mean ± SD
[5] = plasma, IV administration at 1mg/kg
[6] = plasma, IV administration at 3mg/kg

Question: With `O=C(OCCN1CCN(c2cccc(C(F)(F)F)c2)CC1)c1ccccc1Nc1ccnc2cc(C(F)(F)F)ccc12` [antrafenine] as the compound, how does the concentration at 0.25 h (brain, iv, 3 mg/kg, IV 3 mg/kg, 0.25 h, individual mice, read-out: Brain Parenchyma Concentration Individual) read?
Answer: Its concentration at 0.25 h is 31.1 nM.

Question: What about the Kp at 0.25 h (brain, iv, 3 mg/kg, IV 3 mg/kg, 0.25 h, n = 3, read-out: B:P ratio Mean ± SD) of the same compound?
Answer: The Kp at 0.25 h was 0.042.

Question: And the concentration at 0.25 h (brain, iv, 3 mg/kg, IV 3 mg/kg, 0.25 h, n = 3, read-out: Brain Parenchyma Concentration Mean ± SD)?
Answer: Its concentration at 0.25 h is 29.5 nM.

Question: What about the Kp at 1 h (brain, iv, 3 mg/kg, IV 3 mg/kg, individual mice, read-out: B:P ratio Individual) of the same compound?
Answer: The Kp at 1 h was 0.14.

Question: And the Kp at 1 h (brain, iv, 3 mg/kg, IV 3 mg/kg, n = 3, read-out: B:P ratio Mean ± SD)?
Answer: Its Kp at 1 h is 0.11.

Question: What about the concentration at 1 h (brain, iv, 3 mg/kg, IV 3 mg/kg, n = 3, read-out: Brain Parenchyma Concentration Mean ± SD) of the same compound?
Answer: Its concentration at 1 h is 31.4 nM.

Question: What about the Kp at 4 h (brain, iv, 3 mg/kg, IV 3 mg/kg, 4 h, individual mice, read-out: B:P ratio Individual) of the same compound?
Answer: The Kp at 4 h was 0.32.

Question: What about the Kp at 4 h (brain, iv, 3 mg/kg, IV 3 mg/kg, 4 h, n = 3, read-out: B:P ratio Mean ± SD) of the same compound?
Answer: Its Kp at 4 h is 0.29.

Question: What about the Kp at 4 h (brain, iv, 3 mg/kg, IV 3 mg/kg, 4 hours after administration, read-out: concentration in the brain as percentage of that present in plasma) of the same compound?
Answer: The Kp at 4 h was ~0.3.

Question: What about the concentration at 4 h (brain, iv, 3 mg/kg, IV 3 mg/kg, 4 hours after administration, read-out: mean brain concentration) of the same compound?
Answer: The concentration at 4 h was 13.9 nM.

Question: What about the concentration at 0.25 h (plasma, iv, 1 mg/kg, IV 1 mg/kg, 0.25 h, individual mice, read-out: Plasma Concentration Individual) of the same compound?
Answer: The concentration at 0.25 h was 313 nM.

Question: And the concentration at 0.25 h (plasma, iv, 1 mg/kg, IV 1 mg/kg, 0.25 h, n = 3, read-out: Plasma Concentration Mean ± SD)?
Answer: Its concentration at 0.25 h is 297 nM.

Question: And the concentration at 1 h [1]?
Answer: The concentration at 1 h was 122 nM.

Question: And the concentration at 1 h [2]?
Answer: Its concentration at 1 h is 113 nM.

Question: What about the concentration at 4 h (plasma, iv, 1 mg/kg, IV 1 mg/kg, 4 h, individual mice, read-out: Plasma Concentration Individual) of the same compound?
Answer: The concentration at 4 h was 12.5 nM.

Question: What about the concentration at 4 h (plasma, iv, 1 mg/kg, IV 1 mg/kg, 4 h, n = 3, read-out: Plasma Concentration Mean ± SD) of the same compound?
Answer: The concentration at 4 h was 13.1 nM.

Question: What about the concentration at 24 h [1] of the same compound?
Answer: The concentration at 24 h was 2 nM.

Question: What about the concentration at 24 h [2] of the same compound?
Answer: The concentration at 24 h was 1.8 nM.

Question: What about the half-life (plasma, iv, 1 mg/kg, plasma, IV administration at 1mg/kg, read-out: Apparent t1/2 (converted)) of the same compound?
Answer: Its half-life is 7.3 h.

Question: And the concentration at 0.25 h (plasma, iv, 3 mg/kg, IV 3 mg/kg, 0.25 h, individual mice, read-out: Plasma Concentration Individual)?
Answer: The concentration at 0.25 h was 738 nM.

Question: And the concentration at 0.25 h (plasma, iv, 3 mg/kg, IV 3 mg/kg, 0.25 h, n = 3, read-out: Plasma Concentration Mean ± SD)?
Answer: Its concentration at 0.25 h is 697 nM.

Question: What about the concentration at 1 h [3] of the same compound?
Answer: The concentration at 1 h was 282 nM.

Question: What about the concentration at 1 h [4] of the same compound?
Answer: Its concentration at 1 h is 280 nM.

Question: What about the concentration at 4 h (plasma, iv, 3 mg/kg, IV 3 mg/kg, 4 h, individual mice, read-out: Plasma Concentration Individual) of the same compound?
Answer: Its concentration at 4 h is 53 nM.

Question: And the concentration at 4 h (plasma, iv, 3 mg/kg, IV 3 mg/kg, 4 h, n = 3, read-out: Plasma Concentration Mean ± SD)?
Answer: Its concentration at 4 h is 47.5 nM.

Question: What about the concentration at 4 h (plasma, iv, 3 mg/kg, IV 3 mg/kg, 4 hours after administration, read-out: mean plasma concentration) of the same compound?
Answer: Its concentration at 4 h is 47.5 nM.

Question: And the concentration at 24 h [3]?
Answer: Its concentration at 24 h is 5.7 nM.

Question: And the concentration at 24 h [4]?
Answer: Its concentration at 24 h is 6.5 nM.

Question: And the half-life (plasma, iv, 3 mg/kg, plasma, IV administration at 3mg/kg, read-out: Apparent t1/2 (converted))?
Answer: The half-life was 7.4 h.

Question: What about the half-life (plasma, iv, 3 mg/kg, plasma, IV at 1 and 3 mg/kg, each profile, read-out: apparent terminal half-life (converted)) of the same compound?
Answer: Its half-life is ~7 h.

Question: And the AUC(0-inf) [5]?
Answer: Its AUC(0-inf) is 1.29 µM·h.

Question: And the clearance [5]?
Answer: Its clearance is 22 mL/min/kg.

Question: What about the Vd [5] of the same compound?
Answer: The Vd was 2.3 L/kg.

Question: What about the AUC(0-inf) [6] of the same compound?
Answer: The AUC(0-inf) was 3.14 µM·h.

Question: And the clearance [6]?
Answer: Its clearance is 27.1 mL/min/kg.

Question: And the Vd [6]?
Answer: Its Vd is 3.9 L/kg.
